Reference: PMC8342319, “Predicting blood-to-plasma concentration ratios of drugs from chemical structures and volumes of distribution in humans” (Molecular Diversity, 2021)
Like-named read-outs stand apart in the source and are kept apart here.

How the values were obtained:
plasma protein = details: cited from earlier work; for fp_Human (free fraction in plasma): human, collected value, median if multiple values were reported, ref: Table S1
[1] = human, cited from earlier work
[2] = human
[3] = cited from earlier work
[4] = intravenous, median if multiple values were reported, ref numbers in Table S1
[5] = human, intravenous, median if multiple values were reported, ref numbers in Table S1
[6] = intravenous, median if multiple values reported, Reference of Table S1

Row | Compound | in vivo Vd_(L/kg)_Human [1, 4] [L/kg] | in vivo CL_(L/hr/kg)_Human [3, 5] [L/h/kg] | further results
1 | CC(=O)Nc1ccc(O)cc1 [Acetaminophen] | 1.000 | – | fp_Human (free fraction in plasma) (plasma protein): 0.710
2 | CN(C)Cc1nnc2n1-c1ccc(Cl)cc1C(c1ccccc1)=NC2 [Adinazolam] | – | 0.372 | in vivo MRT_(hr)_Human [2]: 2.634 h; in vivo Vd_(L/kg)_Human ([1]; in vivo, iv): 0.980 L/kg
3 | Oc1ncnc2[nH]ncc12 [Allopurinol] | 0.580 | – | –
4 | Cc1nnc2n1-c1ccc(Cl)cc1C(c1ccccc1)=NC2 [Alprazolam] | 0.800 | 0.044 | –
5 | C=CCc1ccccc1OCC(O)CNC(C)C (stereo not shown) [Alprenolol] | 3.200 | 0.900 | –
6 | CCCCc1oc2ccccc2c1C(=O)c1cc(I)c(OCCN(CC)CC)c(I)c1 [Amiodarone] | – | 0.114 | –
7 | CN(C)CCC=C1c2ccccc2CCc2ccccc21 [Amitriptyline] | 8.700 | 0.593 | –
8 | CC1(C)S[C@@H]2[C@H](NC(=O)[C@H](N)c3ccc(O)cc3)C(=O)N2[C@H]1C(=O)O [Amoxicillin] | 0.250 | 0.198 | –
9 | C[C@@H](O[C@H]1OCCN(Cc2n[nH]c(=O)[nH]2)[C@H]1c1ccc(F)cc1)c1cc(C(F)(F)F)cc(C(F)(F)F)c1 [Aprepitant] | 0.940 | – | –
10 | CC(C)NCC(O)COc1ccc(CC(N)=O)cc1 (stereo not shown) [Atenolol] | – | 0.150 | –
11 | C[C@H]1C[C@H]2[C@@H]3CCC4=CC(=O)C=C[C@]4(C)[C@@]3(F)[C@@H](O)C[C@]2(C)[C@@]1(O)C(=O)CO [Betamethasone] | – | 0.168 | –
12 | OC(CCN1CCCCC1)(c1ccccc1)C1CC2C=CC1C2 (stereo not shown) [Biperiden] | 9.100 | – | in vivo MRT_(hr)_Human [2]: 12.639 h
13 | CC(C)NCC(O)COc1ccc(COCCOC(C)C)cc1 (stereo not shown) [Bisoprolol] | 2.400 | 0.222 | fp_Human (free fraction in plasma) (plasma protein): 0.830
14 | CCCC1O[C@@H]2C[C@H]3[C@@H]4CCC5=CC(=O)C=C[C@]5(C)[C@H]4[C@@H](O)C[C@]3(C)[C@]2(C(=O)CO)O1 (stereo partly shown) [Budesonide] | 3.900 | 1.200 | –
15 | COc1ccccc1OCCNCC(O)COc1cccc2[nH]c3ccccc3c12 (stereo not shown) [Carvedilol] | 1.300 | 0.495 | –
16 | C=CC1=C(C(=O)O)N2C(=O)[C@@H](NC(=O)/C(=N\OCC(=O)O)c3csc(N)n3)[C@H]2SC1 [Cefixime] | 0.240 | 0.060 | –
17 | CCC[C@@H]1C[C@@H](C(=O)N[C@@H]([C@H]2O[C@H](SC)[C@H](O)[C@@H](O)[C@H]2O)[C@H](C)Cl)N(C)C1 [Clindamycin] | – | 0.270 | –
18 | CN1CCN(C2=Nc3cc(Cl)ccc3Nc3ccccc32)CC1 [Clozapine] | 1.600 | – | in vivo MRT_(hr)_Human [2]: 10.667 h
19 | CNCCCN1c2ccccc2CCc2ccccc21 [Desipramine] | 15.000 | – | in vivo MRT_(hr)_Human [2]: 22.727 h
20 | C[C@@H]1C[C@H]2[C@@H]3CCC4=CC(=O)C=C[C@]4(C)[C@@]3(F)[C@@H](O)C[C@]2(C)[C@@]1(O)C(=O)CO [Dexamethasone] | – | 0.198 | –

Row | Compound | in vivo Vd_(L/kg)_Human [1, 4] [L/kg] | in vivo CL_(L/hr/kg)_Human [3, 5] [L/h/kg] | further results
21 | CN1C(=O)CN=C(c2ccccc2)c2cc(Cl)ccc21 [Diazepam] | – | 0.023 | –
22 | O=c1[nH]cnc2c1ncn2[C@H]1CC[C@@H](CO)O1 [Didanosine] | – | 0.660 | in vivo MRT_(hr)_Human [2]: 1.197 h
23 | COc1cc2nc(N3CCN(C(=O)C4COc5ccccc5O4)CC3)nc(N)c2cc1OC (stereo not shown) [Doxazosin] | 1.300 | – | in vivo MRT_(hr)_Human [2]: 13.542 h
24 | CCN(CC)C(=O)/C(C#N)=C/c1cc(O)c(O)c([N+](=O)[O-])c1 [Entacapone] | 0.270 | 0.720 | –
25 | CC[C@H]1OC(=O)[C@H](C)[C@@H](O[C@H]2C[C@@](C)(OC)[C@@H](O)[C@H](C)O2)[C@H](C)[C@@H](O[C@@H]2O[C@H](C)C[C@H](N(C)C)[C@H]2O)[C@](C)(O)C[C@@H](C)C(=O)[C@H](C)[C@@H](O)[C@]1(C)O [Erythromycin] | – | – | fp_Human (free fraction in plasma) (plasma protein): 0.220
26 | CC(C)(C)NC(=O)[C@H]1CC[C@H]2[C@@H]3CC[C@H]4NC(=O)C=C[C@]4(C)[C@H]3CC[C@]12C [Finasteride] | 1.100 | – | in vivo MRT_(hr)_Human [2]: 7.639 h
27 | O=C(NCC1CCCCN1)c1cc(OCC(F)(F)F)ccc1OCC(F)(F)F (stereo not shown) [Flecainide] | 6.100 | – | in vivo MRT_(hr)_Human [2]: 20.748 h
28 | CCOC(=O)c1ncn2c1CN(C)C(=O)c1cc(F)ccc1-2 [Flumazenil] | – | 0.960 | –
29 | CC1(C)O[C@@H]2C[C@H]3[C@@H]4C[C@H](F)C5=CC(=O)C=C[C@]5(C)[C@H]4[C@@H](O)C[C@]3(C)[C@]2(C(=O)CO)O1 [Flunisolide] | – | 0.720 | in vivo MRT_(hr)_Human [2]: 2.500 h
30 | O=c1[nH]cc(F)c(=O)[nH]1 [Fluorouracil] | – | – | fp_Human (free fraction in plasma) (plasma protein): 0.770
31 | CC(C)n1c(/C=C/C(O)CC(O)CC(=O)O)c(-c2ccc(F)cc2)c2ccccc21 (stereo not shown) [Fluvastatin] | 0.420 | – | in vivo MRT_(hr)_Human [2]: 0.438 h
32 | O=C(O)P(=O)(O)O [Foscarnet] | 0.500 | 0.126 | –
33 | NS(=O)(=O)c1cc(C(=O)O)c(NCc2ccco2)cc1Cl [Furosemide] | – | 0.096 | –
34 | O=C(/C=C/c1c(C(=O)O)[nH]c2cc(Cl)cc(Cl)c12)Nc1ccccc1 [Gavestinel] | – | – | fp_Human (plasma protein): 0.002
35 | CCC1=C(C)CN(C(=O)NCCc2ccc(S(=O)(=O)NC(=O)N[C@H]3CC[C@H](C)CC3)cc2)C1=O [Glimepiride] | 0.190 | 0.034 | fp_Human (free fraction in plasma) (plasma protein): 0.028
36 | CC#CCC(C)[C@H](O)/C=C/[C@@H]1[C@H]2C/C(=C/CCCC(=O)O)C[C@H]2C[C@H]1O (stereo partly shown) [Iloprost] | 0.385 | 0.960 | fp_Human (free fraction in plasma) (plasma protein): 0.400
37 | CN(C)CCCN1c2ccccc2CCc2ccccc21 [Imipramine] | 12.000 | – | –
38 | CCC(C)n1ncn(-c2ccc(N3CCN(c4ccc(OCC5COC(Cn6cncn6)(c6ccc(Cl)cc6Cl)O5)cc4)CC3)cc2)c1=O (stereo not shown) [Itraconazole] | 7.400 | 0.306 | –
39 | CC(CCc1ccccc1)NCC(O)c1ccc(O)c(C(N)=O)c1 (stereo not shown) [Labetalol] | – | 1.380 | fp_Human (free fraction in plasma) (plasma protein): 0.500
40 | Cc1c(OCC(F)(F)F)ccnc1C[S+]([O-])c1nc2ccccc2[nH]1 (stereo not shown) [Lansoprazole] | 0.280 | 0.319 | –

Row | Compound | in vivo Vd_(L/kg)_Human [1, 4] [L/kg] | in vivo CL_(L/hr/kg)_Human [3, 5] [L/h/kg] | further results
41 | CCN(CC)CC(=O)Nc1c(C)cccc1C [Lidocaine] | – | 0.756 | –
42 | CC[C@H](C)C(=O)O[C@H]1C[C@@H](C)C=C2C=C[C@H](C)[C@H](CC[C@@H]3C[C@@H](O)CC(=O)O3)[C@H]21 [Lovastatin] | 0.870 | 0.432 | –
43 | CN(c1nc2ccccc2s1)C1CCN(C[C@H](O)COc2ccc(F)c(F)c2)CC1 [Lubeluzole] | – | 0.102 | fp_Human (free fraction in plasma) (plasma protein): 0.003
44 | CN1CC[C@]23c4c5ccc(O)c4O[C@H]2[C@@H](O)C=C[C@H]3[C@H]1C5 [Morphine] | – | 1.500 | –
45 | C=CCN1CC[C@]23c4c5ccc(O)c4O[C@H]2C(=O)CC[C@@]3(O)[C@H]1C5 [Naloxone] | 1.700 | – | –
46 | COc1ccc2cc([C@H](C)C(=O)O)ccc2c1 [Naproxen] | – | 0.004 | –
47 | Cc1ccnc2c1NC(=O)c1cccnc1N2C1CC1 [Nevirapine] | 1.300 | 0.018 | –
48 | COCCOC(=O)C1=C(C)NC(C)=C(C(=O)OC(C)C)C1c1cccc([N+](=O)[O-])c1 (stereo not shown) [Nimodipine] | 1.000 | – | in vivo MRT_(hr)_Human [2]: 1.111 h
49 | COc1ccc2[nH]c([S+]([O-])Cc3ncc(C)c(OC)c3C)nc2c1 (stereo not shown) [Omeprazole] | 0.240 | 0.504 | –
50 | O=C1Nc2ccc(Cl)cc2C(c2ccccc2)=NC1O (stereo not shown) [Oxazepam] | – | – | in vivo CL_(L/hr/kg)_Human ([3]; in vivo, iv): 0.066 L/h/kg
51 | COc1ccc2c3c1O[C@H]1C(=O)CC[C@@]4(O)[C@@H](C2)N(C)CC[C@]314 [Oxycodone] | – | 0.366 | fp_Human (free fraction in plasma) (plasma protein): 0.550
52 | CCN1CCN(C(=O)N[C@@H](C(=O)N[C@@H]2C(=O)N3[C@@H]2SC(C)(C)[C@@H]3C(=O)O)c2ccccc2)C(=O)C1=O [Piperacillin] | – | – | in vivo MRT_(hr)_Human [2]: 1.125 h; in vivo Vd_(L/kg)_Human [1, 6]: 0.270 L/kg
53 | CCN(CC)CCNC(=O)c1ccc(N)cc1 [Procainamide] | – | – | fp_Human (plasma protein): 0.840
54 | O=C(c1ccc(OCCN2CCCCC2)cc1)c1c(-c2ccc(O)cc2)sc2cc(O)ccc12 [Raloxifene] | – | – | in vivo MRT_(hr)_Human [2]: 41.837 h; in vivo Vd_(L/kg)_Human [1, 6]: 36.900 L/kg
55 | Cc1nc2n(c(=O)c1CCN1CCC(c3noc4cc(F)ccc34)CC1)CCCC2 [Risperidone] | – | – | fp_Human (plasma protein; free fraction in human plasma, median if multiple values reported, Reference of Table S1): 0.100
56 | CCCc1nn(C)c2c(=O)[nH]c(-c3cc(S(=O)(=O)N4CCN(C)CC4)ccc3OCC)nc12 [Sildenafil] | – | – | in vivo MRT_(hr)_Human [2]: 2.564 h; in vivo Vd_(L/kg)_Human [1, 6]: 1.400 L/kg
57 | Cc1cc(NS(=O)(=O)c2ccc(N)cc2)no1 [Sulfamethoxazole] | – | – | in vivo CL_(L/hr/kg)_Human ([3]; human, intravenous, median if multiple values reported, Reference of Table S1): 0.020 L/h/kg
58 | CCCCNC(=O)NS(=O)(=O)c1ccc(C)cc1 [Tolbutamide] | – | – | in vivo MRT_(hr)_Human [2]: 9.524 h; in vivo Vd_(L/kg)_Human [1, 6]: 0.120 L/kg
59 | CCN(C(C)=O)c1cccc(-c2ccnc3c(C#N)cnn23)c1 [Zaleplon] | – | – | in vivo MRT_(hr)_Human [2]: 1.354 h; in vivo Vd_(L/kg)_Human ([1]; in vivo, iv): 1.300 L/kg
